# From patent publication US10501460B2, “Heterocyclic compounds and uses thereof” (Plexxikon Inc., priority 2013, dated 2019)
# Key:
# BRD4-BD1 (44-164) = biological target: T1, BRD4-BD1 (44-164) (Homo sapiens, UniProt O60885); assay: Alphascreen binding assay BRD4-BD1 (BRD4 biochemical inhibitory activity); settings: read-out: Biochemical activity (IC50 μM) BRD4(1) H4
# T1 construct: BRD4-BD1 (44-164); made in house; host or cells: E. coli BL21-CodonPlus (DE3)
# Protocol: Binding of compounds of formula (I) with bromodomain 2, 3 4 was assessed using Alphascreen binding assay. The inhibition of the interaction between bromodomain and its acetylated target protein (Filippakopoulos P et al. 2012) was measured quantitatively using recombinant BRD proteins, an acetylated Histone 4 peptide and AlphaScreen™ technology. In absence of inhibition the BRD protein bound to AlphaScreen™ nickel chelate acceptor beads can interact with the acetylated Histone 4 peptide which is immobilized by the AlphaScreen™ Streptavidin coated beads. This interaction brings donor and acceptor beads in proximity. The close proximity allows the singlet oxygen produced by laser excitation of the donor beads to reach the acceptor beads and generate a luminescence signal. BRD inhibitors result in a decrease in the proximity signal through an inhibition of the BRD—acetylated peptide interaction.
# Recombinant human bromodomains containing the N-terminal bromodomain (BRD2-BD1 (71-194), BRD3-BD1 (24-144) and BRD4-BD1 (44-164)) or dual bromodomains (BRD4-BD12 (1-477), BRD4-BD12 (1-472)) were prepared and purified as described in protein expression and purification session. The peptide is human Histone H41-21K5AcK8AcK12AcK16Ac-Biotin (Anaspec Calif., USA).
# Protocol for BRD2, BRD3 and BRD4 assay: All components are prepared in buffer composed of 50 mM HEPES pH 7.5, 100 mM NaCl, 0.01% bovine serum albumin (“BSA”), 0.01% Triton X-100, 2 mM dithiothreitol (“DTT”). 7 μL of Bromodomain protein and 7 μL of peptide are added to wells containing 1 μL of various concentrations of test compounds of formula (I) or DMSO vehicle in an Alphaplate (PerkinElmer Ga., USA) and incubated for 1 hour at room temperature. 4 μL donor and acceptor bead mixture is then added with final concentrations of 7.5 μg/ml. 30 minutes after bead addition, Alpha signal is read on the Envision spectrometer ([…]Ex 680 nm, […]Em 520-620 nm). Final concentrations of bromodomain proteins and peptide are as shown below.
# All data was normalized to the mean of 16 high and 16 low control wells on each plate. A four parameter curve fit of the following formula was then applied: Y=a+(b−a)/(1+(x/c)^d) Where ‘a’ is the minimum, ‘b’ is the maximum, ‘c’ is the pIC50 and ‘d’ is the Hill slope. Protein Expression and Purification
# Recombinant human bromodomains containing the N-terminal bromodomain (BRD2-BD1 (71-194), BRD3-BD1 (24-144) and BRD4-BD1 (44-164)) or dual bromodomains (BRD4-BD12 (1-477), BRD4-BD12 (1-472)) were expressed in E. coli cells (in a modified pET vector) with an N-terminal six-His tag and purified using a combination of both IMAC (Ni-affinity) and size exclusion chromatography steps.
# Recombinant BRD proteins were expressed using the E. coli strain BL21-CodonPlus (DE3) (Agilent Technologies Calif., USA). Cells were grown in Terrific Broth (TB) media to an OD600 of 1.2 at 37° C. at which temperature was reduced to 25° C., protein was induced with 1.0 mM ispropyl-β-D-thiogalactopyranoside (“IPTG”) for 12-18 hours and harvested by centrifugation at 8000×g for 20 minutes. Cells were re-suspended in 0.1M K2PO4 pH 8.0, 250 mM NaCl, 10% Glycerol, 0.75% NP-40, 25 mM Imidazole, 5 mM beta-mercaptoethanol (“BME”) with 0.2 mg/ml Lysosyme, 2.0 mM phenylmethanesulfonyl fluoride (“PMSF”), 25 μg/ml DNAse I, incubated on ice for 30 minutes and lyzed with a cell disruptor (MicroFluidics Mass., USA). The lysate was clarified by centrifugation at 20,000×g for 2 hours. The protein was captured with Ni-NTA resin (Life Technologies, USA). Contaminating proteins were washed off with 25 mM Tris-HCl pH 8.3, 250 mM NaCl, 12% Glycerol and 50 mM Imidazole. Following 3× wash steps, protein was eluted step wise using a 50 mM HEPES pH 7.5, 500 mM NaCl and 400 mM Imidazole. The protein was further purified using Gel Filtration column 26/600 Superdex 200 (GE Biosciences NJ, USA) in 50 mM HEPES pH 7.5, 250 mM NaCl. The protein was aliquoted and flash-frozen in liquid Nitrogen. […]
# bromodomain = assay: Bromodomain cell assays of Example 40 (at least one of them); type: cell-based; settings: in at least one of the bromodomain cell assays described in Example 40
# Summary of the method: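 Growth inhibition: 3000 MV-4-11, MOLM-13, MM.1S or neuroblastoma cells/well got an 8-point 1:3 series from 10 μM top (0.2% DMSO) for 72 h, then CellTiter-Glo luminescence. Myc reporter: MV-4-11 with E-box firefly luciferase, 24 h exposure, One-Glo luminescence plus CellTiter-Fluo cell count. pIC50 from four-parameter fit.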
# MV-4-11 = assay: Oncology cell growth assay MV-4-11 (CellTiter Glo, 72 hours); type: cell-based; settings: Homo sapiens, MV4-11, 72 h; MV-4-11 cell growth inhibitory activity, 3d
# Summary of the method: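 MV-4-11 cells (MLL-AF4 AML) exposed 72 h to 8-point 1:3 titration, top final 10 μM, 0.2% DMSO. CellTiter Glo luminescence as cell-number readout, normalized to DMSO controls; pIC50 from four-parameter fit.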
SMILES,IC50 (BRD4-BD1 (44-164)) [µM],IC50 (bromodomain) [µM],IC50 (MV-4-11) [µM]
"Cc1noc(C)c1-c1cnc2[nH]cc(C(=O)c3ccc(C(F)(F)F)cc3)c2c1 [P-0016, [5-(3,5-dimethylisoxazol-4-yl)-1H-pyrrolo[2,3-b]pyridin-3-yl]-[4-(trifluoromethyl)phenyl]methanone]",1 to 10,< 10,
"Cc1cc2cc(-c3c(C)noc3C)cnc2[nH]1 [P-0017, 3,5-dimethyl-4-(2-methyl-1H-pyrrolo[2,3-b]pyridin-5-yl)isoxazole]",1 to 10,< 10,1 to 10
"Cc1noc(C)c1-c1cnc2cc[nH]c2c1 [P-0018, 3,5-dimethyl-4-(1H-pyrrolo[3,2-b]pyridin-6-yl)isoxazole]",1 to 10,< 10,
"Cc1noc(C)c1-c1cnc2[nH]cc(C(O)c3ccc(C(F)(F)F)nc3)c2c1 (centres unmarked) [P-0023, [5-(3,5-dimethylisoxazol-4-yl)-1H-pyrrolo[2,3-b]pyridin-3-yl]-[6-(trifluoromethyl)-3-pyridyl]methanol]",1 to 10,< 10,1 to 10
"CCc1[nH]c2ncc(-c3c(C)noc3C)cc2c1Cc1cccc(OC(F)(F)F)c1 [P-0050, 4-[2-ethyl-3-[[3-(trifluoromethoxy)phenyl]methyl]-1H-pyrrolo[2,3-b]pyridin-5-yl]-3,5-dimethyl-isoxazole]",10 to 200,< 10,
"COc1ccccc1S(=O)(=O)n1ccc2ncc(-c3c(C)noc3C)cc21 [P-0065, 4-[1-(2-methoxyphenyl)sulfonylpyrrolo[3,2-b]pyridin-6-yl]-3,5-dimethyl-isoxazole]",1 to 10,< 10,
"Cc1noc(C)c1-c1cnc2ccn(S(=O)(=O)N3CCCC3)c2c1 [P-0068, 3,5-dimethyl-4-(1-pyrrolidin-1-ylsulfonylpyrrolo [3,2-b]pyridin-6-yl)isoxazole]",1 to 10,< 10,
COC(c1c[nH]c2cc(-c3c(C)noc3C)cnc12)C1CC1 (centres unmarked) [P-0069],1 to 10,< 10,
"Cc1noc(C)c1-c1cnc2c(CC3CC3)c[nH]c2c1 [P-0070, 4-[3-(cyclopropylmethyl)-1H-pyrrolo[3,2-b]pyridin-6-yl]-3,5-dimethyl-isoxazole]",1 to 10,< 10,
"Cc1noc(C)c1-c1cnc2c(I)c[nH]c2c1 [P-0072, 4-(3-iodo-1H-pyrrolo[3,2-b]pyridin-6-yl)-3,5-dimethyl-isoxazole]",1 to 10,< 10,
"Cc1noc(C)c1-c1cnc2c(CC3CC3)cn(S(=O)(=O)CCC(F)(F)F)c2c1 [P-0074, 4-[3-(cyclopropylmethyl)-1-(3,3,3-trifluoropropylsulfonyl)pyrrolo[3,2-b]pyridin-6-yl]-3,5-dimethyl-isoxazole]",1 to 10,< 10,
"Cc1noc(C)c1-c1cnc2c(C#N)cn(S(=O)(=O)c3ccccc3)c2c1 [P-0081, 1-(benzenesulfonyl)-6-(3,5-dimethylisoxazol-4-yl)pyrrolo[3,2-b]pyridine-3-carbonitrile]",≤ 1,< 10,
"Cc1noc(C)c1-c1cnc2c(C#N)c[nH]c2c1 [P-0082, 6-(3,5-dimethylisoxazol-4-yl)-1H-pyrrolo[3,2-b]pyridine-3-carbonitrile]",1 to 10,< 10,
"Cc1noc(C)c1-c1cnc2[nH]cc(I)c2c1 [P-0086, 4-(3-iodo-1H-pyrrolo[2,3-b]pyridin-5-yl)-3,5-dimethyl-isoxazole]",1 to 10,< 10,
"Cc1noc(C)c1-c1cnc2c(c1)c(I)cn2S(=O)(=O)c1ccccc1 [P-0087, 4-[1-(benzenesulfonyl)-3-iodo-pyrrolo[2,3-b]pyridin-5-yl]-3,5-dimethyl-isoxazole]",1 to 10,< 10,
"[2H]C([2H])([2H])n1cc(I)c2cc(-c3c(C)noc3C)cnc21 [P-0088, 4-[3-iodo-1-(trideuteriomethyl)pyrrolo[2,3-b]pyridin-5-yl]-3,5-dimethyl-isoxazole]",1 to 10,< 10,
"Cc1noc(C)c1-c1cnc2c(c1)c(C(O)C1CCS(=O)(=O)CC1)cn2S(=O)(=O)c1ccccc1 (centres unmarked) [P-0094, [1-(benzenesulfonyl)-5-(3,5-dimethylisoxazol-4-yl)pyrrolo[2,3-b]pyridin-3-yl]-(1,1-dioxothian-4-yl)methanol]",1 to 10,< 10,
"Cc1noc(C)c1-c1cnc2c(c1)c(C(F)C1CCS(=O)(=O)CC1)cn2S(=O)(=O)c1ccccc1 (centres unmarked) [P-0095, 4-[[1-(benzenesulfonyl)-5-(3,5-dimethylisoxazol-4-yl)pyrrolo[2,3-b]pyridin-3-yl]-fluoro-methyl]thiane 1,1-dioxide]",1 to 10,< 10,
"Cc1noc(C)c1-c1cnc2c(c1)c(CC1CCS(=O)(=O)CC1)cn2S(=O)(=O)c1ccccc1 [P-0096, 4-[[1-(benzenesulfonyl)-5-(3,5-dimethylisoxazol-4-yl)pyrrolo[2,3-b]pyridin-3-yl]methyl]thiane 1,1-dioxide]",1 to 10,< 10,
"Cc1noc(C)c1-c1cnc2c(I)cn([Si](C(C)C)(C(C)C)C(C)C)c2c1 [P-0130, [6-(3,5-dimethylisoxazol-4-yl)-3-iodo-pyrrolo[3,2-b]pyridin-1-yl]-triisopropyl-silane]",1 to 10,< 10,
"Cc1noc(C)c1-c1cnc2c(C(=O)O)cn(S(=O)(=O)c3ccccc3)c2c1 [P-0169, 1-(benzenesulfonyl)-6-(3,5-dimethylisoxazol-4-yl)pyrrolo[3,2-b]pyridine-3-carboxylic acid]",≤ 1,< 10,
"Cc1noc(C)c1-c1cnc2c(c1)N(S(=O)(=O)c1ccccc1)CC2CCC(=O)O (centres unmarked) [P-0175, 3-[1-(benzenesulfonyl)-6-(3,5-dimethylisoxazol-4-yl)-2,3-dihydropyrrolo[3,2-b]pyridin-3-yl]propanoic acid]",1 to 10,< 10,
"Cc1noc(C)c1-c1cnc2c(c1)c(Sc1ccccc1)cn2C1COC1 [P-0178, 3,5-dimethyl-4-[1-(oxetan-3-yl)-3-phenylsulfanyl-pyrrolo[2,3-b]pyridin-5-yl]isoxazole]",1 to 10,,1 to 10
"Cc1noc(C)c1-c1cnc2c(-c3cnn(C)c3)cn(C(=O)C3CCC(F)(F)CC3)c2c1 [P-0208, (4,4-difluorocyclohexyl)-[6-(3,5-dimethylisoxazol-4-yl)-3-(1-methylpyrazol-4-yl)pyrrolo[3,2-b]pyridin-1-yl]methanone]",≤ 1,,1 to 10
